These results are taken from PMC11887451, “Leveraging Immunogenic Cell Death to Enhance the Immune Response against Malignant Pleural Mesothelioma Tumors” (Journal of the American Chemical Society, 2025).

The subject of test [1] is human malignant mesothelioma cell line JU77. Description: MTT cytotoxicity assay, 72 h, JU77. Format: cell-based. The note with it: exposure time 72 h. (Tetrazolium dyes change colour on reduction, which living cells bring about.)
Source text: (§1) Human malignant mesothelioma cancer cell lines JU77 and LO68 were obtained from Cell Bank Australia (Children's Medical Research Institute, Westmead, Australia). Mouse malignant mesothelioma cancer cell line AB12, human nonmalignant mesothelioma cancer cell line Met5A (mesothelial cells), mouse macrophage cell line J774 and human monocytic cell line THP-1 were obtained from American Type Culture Collection (ATCC) (Rockville, MD, USA). Human malignant mesothelioma cell lines VMC23 (epithelial), Meso82 (sarcomatous), Meso92 (biphasic), were kindly provided by Prof. Walter Berger (Medical University of Vienna). All cells except for J774 were cultured in RPMI and J774 cells were cultured in DMEM. Both types of media were supplemented with 10% FBS and 1% penicillin-streptomycin (10,000 U/mL). Cells were grown in tissue culture flasks (75 cm2 and 25 cm2, SPL Life Sciences Co., Ltd., Korea). All cell lines were grown at 37 °C in a humidified atmosphere of 95% air and 5% CO 2 and passaged when they reached 80–90% confluency. All Au stock solutions were prepared in 1% DMSO in the respected medium, ensuring that cell viability was not inhibited.
(§2) The cytotoxicity of compounds was determined using an MTT colorimetric test. The cells were harvested from culture flasks by trypsinization and seeded into Cellstar 96 -well microculture plates (Greiner Bio -One) at the seeding density of 6000 cells per well (6 × 10^4 cells/mL). After
(§3) the cells were allowed to resume exponential growth for 16 h, they were exposed to drugs at
(§4) different concentrations in media for 72 h. The drugs were diluted in a complete medium at the desired concentration added to each well (100 μL) and serially diluted in other wells. After exposure for 72 h, the media was replaced with MTT in media (5 mg/mL, 100 μL/well) and
(§5) incubated for an additional 50 min. Subsequently, the medium was aspirated, and the purple formazan crystals formed in viable cells were dissolved in DMSO (100 μL/well). Optical densities were measured at 570 nm using a BioTek Synergy H1 microplate and MultiskanTM SkyHigh plate readers. The quantity of viable cells was expressed in terms of treated/control (T/C) values in comparison to untreated control cells, and 50% inhibitory concentrations (IC 50) were calculated from concentration-effect curves by interpolation. An evaluation was based on means from at least three independent experiments, each comprising three replicat es per
(§6) DMSO had not impact on the cell viability at the concentrations used.
Test [2] has as its system patient-derived Meso92 cell line (biphasic MPM). Description: MTT cytotoxicity assay, 72 h, Meso92. Format: cell-based, human. The note with it: exposure time 72 h.
Test [3] relates to human malignant mesothelioma cell line LO68. As to the kind of experiment: MTT cytotoxicity assay, 72 h, LO68. In kind it is cell-based. The settings on record: exposure time 72 h.
In test [4] the test system is AB12 cells phagocytosed by J774 macrophages. As to the kind of experiment: Phagocytosis assay, flow cytometry. Format: cell-based, mouse. The note with it: AB12 treated 100 min at 5 × IC50 (72 h), 16 h with J774 macrophages. In outline: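 AB12 cells labelled with CellTracker Red CMTPX and J774 macrophages with CellTracker Green CMFDA; AB12 cells drug-treated 100 min, then co-incubated with macrophages 16 h at 37°C. Phagocytosis % by flow cytometry as double-positive macrophages over total macrophages.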

Test [5] deals with patient-derived VMC23 cell line (epithelioid MPM). Description: MTT cytotoxicity assay, 72 h, VMC23. Format: cell-based, human. The note with it: exposure time 72 h.
Source text: as §1, §2, §3, §4, §5, §6
Test [6] deals with murine malignant mesothelioma cell line AB12. Description: MTT cytotoxicity assay, 72 h, AB12. Format: cell-based, mouse. The settings on record: exposure time 72 h.
Source text: as §1, §2, §3, §4, §5, §6
The test system of test [7] is human nonmalignant mesothelioma cell line Met5A. Description: MTT cytotoxicity assay, 72 h, Met5A. The note with it: exposure time 72 h. In kind it is cell-based.
For test [8], the system named is patient-derived Meso84 cell line (sarcomatoid MPM). Description: MTT cytotoxicity assay, 72 h, Meso84. The note with it: exposure time 72 h. In kind it is cell-based, human.
In test [9] the test system is panel of seven MPM cell lines. Description: MTT cytotoxicity assay, 72 h, whole panel (summary ranges). Format: cell-based. The settings on record: read-out: cytotoxicity range across the cell line panel.
Source text: Human malignant mesothelioma cancer cell lines JU77 and LO68 were obtained from Cell Bank Australia (Children's Medical Research Institute, Westmead, Australia). Mouse malignant mesothelioma cancer cell line AB12, human nonmalignant mesothelioma cancer cell line Met5A (mesothelial cells), mouse macrophage cell line J774 and human monocytic cell line THP-1 were obtained from American Type Culture Collection (ATCC) (Rockville, MD, USA). Human malignant mesothelioma cell lines VMC23 (epithelial), Meso82 (sarcomatous), Meso92 (biphasic), were kindly provided by Prof. Walter Berger (Medical University of Vienna). All cells except for J774 were cultured in RPMI and J774 cells were cultured in DMEM. Both types of media were supplemented with 10% FBS and 1% penicillin-streptomycin (10,000 U/mL). Cells were grown in tissue culture flasks (75 cm2 and 25 cm2, SPL Life Sciences Co., Ltd., Korea). All cell lines were grown at 37 °C in a humidified atmosphere of 95% air and 5% CO 2 and passaged when they reached 80–90% confluency. All Au stock solutions were prepared in 1% DMSO in the respected medium, ensuring that cell viability was not inhibited. […]
The cytotoxicity of compounds was determined using an MTT colorimetric test. […]
incubated for an additional 50 min. […] Optical densities were measured at 570 nm using a BioTek Synergy H1 microplate and MultiskanTM SkyHigh plate readers. […]

On to `F[P-](F)(F)(F)(F)F.c1cc[c]2c(c1)Nc1cccc[n+]1[Au-]21[S]C(=[N+]2CCCCCC2)[S]1` (centres unmarked) [5G], for which the IC50 in test [1] amounted to 220 ± 40 nM; in test [2] it was 350 ± 40 nM; in test [3] it was 430 ± 50 nM; in test [5], 730 ± 160 nM; in test [6], 330 ± 90 nM; in test [7] it was 250 ± 50 nM. Further, the IC50 in test [8] was determined as 300 ± 70 nM. Also, the “phagocytosis / ICD response (in words)” value in test [4] is listed as “substantial phagocytosis”.
For the molecule `Nc1nc2[nH]cc(CCc3ccc(C(=O)N[C@@H](CCC(=O)O)C(=O)O)cc3)c2c(=O)[nH]1` [Pemetrexed, pemetrexed, reference compound], the IC50 in [1] (Homo sapiens) was 73 ± 14 nM; in test [9] it was 23 to 300 nM; in test [2] (Homo sapiens) it was 140 ± 40 nM; in test [3] (Homo sapiens), 94 ± 28 nM; in test [5] (Homo sapiens), 170 ± 40 nM; in test [6] (Mus musculus), 23 ± 7 nM. For the same molecule, the IC50 is 300 ± 100 nM in test [7] (Homo sapiens, MeT-5A) and 27 ± 2 nM in test [8] (Homo sapiens). The “phagocytosis / ICD response (in words)” value in test [4] is reported as “failed to initiate any ICD response”.
